Where a name gives a salt, the structure may show the parent alone. Bounds are passed on as bounds.

What all share (assay type): cell-based
The target in one test is AXL (Homo sapiens (Human), UniProt P30530). The test is described as follows: AXL autophosphorylation ELISA in A-172 cells. As to conditions: cellular, Gas6 stimulated. The essentials:
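Serum-starved (24 h) A-172 glioblastoma cells pretreated 1 h with compounds (8-point curve, 0.3% DMSO), then stimulated 15 min with 1 μg/mL Gas6. Lysate phospho-AXL measured by sandwich ELISA against a phospho-AXL standard; IC50 from 4-parameter logistic fit between DMSO and reference-inhibitor controls.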
(ELISA stands for enzyme-linked immunosorbent assay.)

The target in another test is Mer (Homo sapiens (Human), UniProt Q12866). Nature of the test: Mer autophosphorylation ELISA in transient transfected 293A cells. As to conditions: cellular, MERTK transfected 293A cells. The protocol: 293A cells (Thermo Fisher #R70507) were seeded at 1.5×10^6 cells/well onto 100 mm dish (Greiner #664169), in DMEM (Thermo Fisher #11995-040) containing 10% FBS (Thermo Fisher #26140-079), 1% MEM NEAA (Thermo Fisher #11140-050), 1% GlutaMax (Thermo Fisher #35050-061), and 1% Penicillin Streptomycin (Thermo Fisher #15140-122). 293A cells were incubated at 37° C., 5% CO2 for 24 h and then transfected with 6 μg MERTK DNA (Genecopoeia #EX-Z8208-M02) using TransIT LT1 transfection reagent (Mirus-Bio #MIR2305). After 24 h incubation, the transfected 293A cells were seeded at 1×10^5 cells/well onto 96-well plates (Corning #3904) in DMEM growth medium overnight. Test compounds were serially diluted to produce an 8-point dose curve in fresh serum-free medium to a final concentration of 0.3% DMSO (vehicle) and added to the cells and incubated for 1 h. Cells were then immediately lysed with 150 μL of cold 1× lysis buffer [20 mM Tris, 137 mM sodium chloride, 2 mM EDTA, 10% glycerol, 1% NP-40 alternative, 1 mM activated sodium orthovanadate, 1 mM PefaBloc SC (Sigma-Aldrich #11429868001), protease/phosphatase inhibitor tablet (Thermo Fisher #A32959)]. Lysates were clarified by centrifugation and 50 μL/well added into the human phospho-Mer DuoSet IC ELISA (R&D Systems #DYC2579-2). Assay was performed according to manufacturer's instructions and sample phospho-Mer concentrations were extrapolated using human phospho-Mer control (R&D Systems #841793) as a standard. Positive control wells (100% activity) contained DMSO-treated cell lysates. Negative control wells (0% activity) contained reference inhibitor-treated cell lysates. IC50 values were calculated by nonlinear regression analysis using a 4-parameter logistic curve fit in ActivityBase XE (IDBS).
Mer, sequence (Q12866 21-999): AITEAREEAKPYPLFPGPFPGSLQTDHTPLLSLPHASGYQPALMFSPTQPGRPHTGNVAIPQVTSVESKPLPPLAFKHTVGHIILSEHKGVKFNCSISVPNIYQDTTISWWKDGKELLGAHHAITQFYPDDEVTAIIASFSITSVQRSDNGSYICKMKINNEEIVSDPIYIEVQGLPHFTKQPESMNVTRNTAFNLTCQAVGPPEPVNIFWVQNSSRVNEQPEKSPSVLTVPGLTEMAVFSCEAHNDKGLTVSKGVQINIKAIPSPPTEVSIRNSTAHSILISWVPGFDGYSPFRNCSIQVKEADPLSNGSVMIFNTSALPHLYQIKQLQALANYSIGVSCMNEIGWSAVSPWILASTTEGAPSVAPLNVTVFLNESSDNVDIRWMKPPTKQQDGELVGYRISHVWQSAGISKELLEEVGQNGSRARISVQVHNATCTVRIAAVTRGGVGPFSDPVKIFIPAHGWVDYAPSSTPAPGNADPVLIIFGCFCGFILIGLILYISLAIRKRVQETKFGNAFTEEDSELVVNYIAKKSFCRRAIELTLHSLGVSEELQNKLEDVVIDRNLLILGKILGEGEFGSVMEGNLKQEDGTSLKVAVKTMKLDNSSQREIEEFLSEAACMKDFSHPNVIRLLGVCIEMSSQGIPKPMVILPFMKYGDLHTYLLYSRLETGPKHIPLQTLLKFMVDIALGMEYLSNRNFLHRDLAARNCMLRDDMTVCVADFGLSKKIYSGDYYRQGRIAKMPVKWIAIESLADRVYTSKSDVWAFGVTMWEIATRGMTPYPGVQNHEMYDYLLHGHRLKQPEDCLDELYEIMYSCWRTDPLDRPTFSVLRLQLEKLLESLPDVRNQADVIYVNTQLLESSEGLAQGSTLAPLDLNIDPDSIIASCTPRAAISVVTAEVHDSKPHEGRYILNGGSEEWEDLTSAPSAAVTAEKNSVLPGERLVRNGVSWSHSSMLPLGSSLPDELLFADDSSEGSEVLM

Another test addresses Met (Homo sapiens (Human), UniProt P08581). The test is described as follows: Met autophosphorylation ELISA in PC-3 cells. As to conditions: cellular, HGF stimulated, read-out: c-Met IC50. A digest of the protocol: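 Phospho-Met (panTyr) sandwich ELISA on lysates of PC-3 cells given 100 ng/mL HGF for 10 min after 1 h compound exposure (8-point curve, 0.3% DMSO) following 3 h serum starvation. Normalised to HGF-stimulated DMSO and reference-inhibitor wells; 4-parameter logistic IC50.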

Another test has as its target KDR (Homo sapiens (Human), UniProt P35968). The test is described as follows: KDR autophosphorylation ELISA in HUVEC cells. As to conditions: cellular, VEGF165 stimulated. A digest of the protocol:
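Compound pretreatment (1 h, 0.3% DMSO) of serum-starved HUVEC preceded a 5 min pulse of 100 ng/mL VEGF165, after which cells were lysed. Phospho-KDR was quantified by ELISA relative to stimulated and unstimulated controls.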

Met, sequence (P08581 25-1390): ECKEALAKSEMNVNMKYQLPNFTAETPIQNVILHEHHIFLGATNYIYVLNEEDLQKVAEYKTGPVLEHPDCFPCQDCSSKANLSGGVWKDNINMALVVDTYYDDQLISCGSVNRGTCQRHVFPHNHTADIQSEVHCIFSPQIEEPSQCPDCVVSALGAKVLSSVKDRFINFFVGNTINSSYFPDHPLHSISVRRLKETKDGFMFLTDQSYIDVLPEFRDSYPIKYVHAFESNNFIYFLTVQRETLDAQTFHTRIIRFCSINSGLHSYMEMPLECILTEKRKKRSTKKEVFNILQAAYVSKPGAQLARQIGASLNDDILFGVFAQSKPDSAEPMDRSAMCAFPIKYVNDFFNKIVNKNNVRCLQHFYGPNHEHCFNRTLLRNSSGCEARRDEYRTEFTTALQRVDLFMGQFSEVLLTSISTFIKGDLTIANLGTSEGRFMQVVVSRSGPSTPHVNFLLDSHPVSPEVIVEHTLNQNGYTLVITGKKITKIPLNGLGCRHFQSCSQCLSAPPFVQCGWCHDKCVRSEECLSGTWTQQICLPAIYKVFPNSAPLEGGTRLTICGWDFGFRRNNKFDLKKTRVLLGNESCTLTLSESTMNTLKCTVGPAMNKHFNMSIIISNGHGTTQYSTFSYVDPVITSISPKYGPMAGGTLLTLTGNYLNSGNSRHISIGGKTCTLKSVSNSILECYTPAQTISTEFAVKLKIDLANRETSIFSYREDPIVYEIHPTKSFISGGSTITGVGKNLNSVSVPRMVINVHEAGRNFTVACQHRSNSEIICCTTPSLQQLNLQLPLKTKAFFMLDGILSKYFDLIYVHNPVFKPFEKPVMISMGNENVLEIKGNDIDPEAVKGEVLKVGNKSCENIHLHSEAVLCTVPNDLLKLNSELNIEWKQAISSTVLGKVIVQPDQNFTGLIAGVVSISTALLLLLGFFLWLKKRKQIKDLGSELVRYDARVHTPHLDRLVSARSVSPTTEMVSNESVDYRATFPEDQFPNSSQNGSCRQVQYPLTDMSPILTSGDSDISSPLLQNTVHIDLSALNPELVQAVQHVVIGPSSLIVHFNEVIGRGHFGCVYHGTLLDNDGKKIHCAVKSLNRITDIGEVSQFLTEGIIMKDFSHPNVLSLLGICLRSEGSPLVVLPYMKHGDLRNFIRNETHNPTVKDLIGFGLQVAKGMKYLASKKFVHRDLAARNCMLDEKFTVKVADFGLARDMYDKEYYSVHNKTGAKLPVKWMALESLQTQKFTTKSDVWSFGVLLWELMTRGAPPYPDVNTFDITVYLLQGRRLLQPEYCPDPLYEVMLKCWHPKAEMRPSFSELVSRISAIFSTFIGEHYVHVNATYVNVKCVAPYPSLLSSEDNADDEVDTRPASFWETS
KDR, sequence (P35968 20-1356): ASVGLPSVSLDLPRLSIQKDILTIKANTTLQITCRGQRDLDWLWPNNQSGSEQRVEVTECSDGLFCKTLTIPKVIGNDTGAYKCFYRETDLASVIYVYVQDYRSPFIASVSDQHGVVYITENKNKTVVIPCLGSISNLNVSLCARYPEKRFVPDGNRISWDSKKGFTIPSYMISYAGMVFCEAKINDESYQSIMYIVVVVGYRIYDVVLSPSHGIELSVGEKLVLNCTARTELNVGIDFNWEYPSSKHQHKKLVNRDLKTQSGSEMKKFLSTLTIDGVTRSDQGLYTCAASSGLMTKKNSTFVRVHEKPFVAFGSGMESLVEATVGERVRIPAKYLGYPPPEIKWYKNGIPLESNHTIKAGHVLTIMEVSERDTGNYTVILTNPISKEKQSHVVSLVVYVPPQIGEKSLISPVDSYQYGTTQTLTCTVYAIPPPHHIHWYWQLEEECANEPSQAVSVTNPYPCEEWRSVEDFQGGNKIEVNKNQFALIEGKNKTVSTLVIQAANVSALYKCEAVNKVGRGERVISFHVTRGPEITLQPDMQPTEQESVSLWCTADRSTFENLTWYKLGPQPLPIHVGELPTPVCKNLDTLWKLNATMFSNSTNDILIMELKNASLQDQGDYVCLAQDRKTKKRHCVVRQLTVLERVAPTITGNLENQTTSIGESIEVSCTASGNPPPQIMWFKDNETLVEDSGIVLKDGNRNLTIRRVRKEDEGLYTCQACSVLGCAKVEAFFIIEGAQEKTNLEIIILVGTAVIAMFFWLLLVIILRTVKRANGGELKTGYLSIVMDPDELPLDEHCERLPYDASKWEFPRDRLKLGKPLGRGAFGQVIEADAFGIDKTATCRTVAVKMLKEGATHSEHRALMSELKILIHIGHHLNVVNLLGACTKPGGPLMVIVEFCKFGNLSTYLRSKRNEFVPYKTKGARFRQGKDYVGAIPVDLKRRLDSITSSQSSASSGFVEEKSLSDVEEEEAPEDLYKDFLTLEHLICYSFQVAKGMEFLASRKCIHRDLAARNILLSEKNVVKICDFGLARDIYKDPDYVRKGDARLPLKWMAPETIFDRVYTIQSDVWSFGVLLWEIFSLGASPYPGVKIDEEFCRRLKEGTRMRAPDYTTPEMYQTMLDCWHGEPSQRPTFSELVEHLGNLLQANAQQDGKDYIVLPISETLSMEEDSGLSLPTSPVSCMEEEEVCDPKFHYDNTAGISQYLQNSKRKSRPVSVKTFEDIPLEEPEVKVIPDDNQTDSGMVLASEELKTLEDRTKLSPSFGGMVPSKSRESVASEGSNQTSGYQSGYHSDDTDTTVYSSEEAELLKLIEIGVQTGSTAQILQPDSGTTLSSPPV
AXL, sequence (P30530 26-894): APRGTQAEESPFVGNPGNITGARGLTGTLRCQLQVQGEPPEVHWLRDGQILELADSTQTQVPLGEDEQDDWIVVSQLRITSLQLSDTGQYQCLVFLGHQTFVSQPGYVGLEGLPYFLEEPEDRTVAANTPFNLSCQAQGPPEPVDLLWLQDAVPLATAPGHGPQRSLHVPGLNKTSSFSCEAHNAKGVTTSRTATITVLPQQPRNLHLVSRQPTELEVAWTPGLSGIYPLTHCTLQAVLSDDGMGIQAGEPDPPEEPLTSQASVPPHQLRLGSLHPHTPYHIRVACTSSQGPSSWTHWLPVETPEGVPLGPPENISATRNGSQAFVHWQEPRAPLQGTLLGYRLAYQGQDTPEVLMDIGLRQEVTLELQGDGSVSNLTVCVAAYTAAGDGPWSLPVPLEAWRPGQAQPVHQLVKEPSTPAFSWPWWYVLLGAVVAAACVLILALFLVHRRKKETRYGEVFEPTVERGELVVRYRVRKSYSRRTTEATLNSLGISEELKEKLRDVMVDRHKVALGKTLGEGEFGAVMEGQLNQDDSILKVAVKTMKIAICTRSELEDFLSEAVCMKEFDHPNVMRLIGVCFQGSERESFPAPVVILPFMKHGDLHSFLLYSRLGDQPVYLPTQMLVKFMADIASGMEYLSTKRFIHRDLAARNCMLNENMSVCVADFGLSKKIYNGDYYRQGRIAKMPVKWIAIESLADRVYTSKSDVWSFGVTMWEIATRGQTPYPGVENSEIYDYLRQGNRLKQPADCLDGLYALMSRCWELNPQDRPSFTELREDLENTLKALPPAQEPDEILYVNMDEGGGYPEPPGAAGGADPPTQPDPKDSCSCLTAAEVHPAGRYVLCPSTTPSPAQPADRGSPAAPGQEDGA

A word on the IC50: it is the concentration that gives 50% inhibition. Regarding `CONC(=O)c1ccc2c(Oc3ccc(NC(=O)C4(C(=O)Nc5ccc(F)cc5)CC4)cc3)ccnc2c1` [Compound 213, 1-N′-(4-Fluorophenyl)-1-N-[4-[7-(methoxycarbamoyl)quinolin-4-yl]oxyphenyl]cyclopropane-1,1-dicarboxamide], the IC50 lay within 10 to 100 nM at AXL, 10 to 100 nM on Mer, 10 to 100 nM on Met and 100 to 300 nM against KDR.
Turning to `O=C(NOCCO)c1ccc2c(Oc3ccc(NC(=O)C4(C(=O)Nc5ccc(F)cc5)CC4)cc3F)ccnc2c1` [Compound 301, 1-N′-[3-Fluoro-4-[7-(2-hydroxyethoxycarbamoyl)quinolin-4-yl]oxyphenyl]-1-N-(4-fluorophenyl)cyclopropane-1,1-dicarboxamide], the IC50 on AXL, against Mer, on Met and against KDR was 10 to 100 nM each time.
Turning to `CNC(=O)c1cc2nccc(Oc3cc(F)c(NC(=O)C4(C(=O)Nc5ccc(F)cc5)CC4)cc3F)c2cc1C` [Compound 290, 1-N′-[2,5-Difluoro-4-[6-methyl-7-(methylcarbamoyl)quinolin-4-yl]oxyphenyl]-1-N-(4-fluorophenyl)cyclopropane-1,1-dicarboxamide], the IC50 on AXL was not above 10 nM; at Mer, not above 10 nM; on Met, not above 10 nM; against KDR, 100 to 300 nM.
On to `CCc1noc(-c2cc3c(Oc4ccc(NC(=O)C5(C(=O)Nc6ccc(F)cc6)CC5)cc4)ccnc3cc2OC)n1` [Compound 283, 1-N-[4-[6-(3-Ethyl-1,2,4-oxadiazol-5-yl)-7-methoxyquinolin-4-yl]oxyphenyl]-1-N′-(4-fluorophenyl)cyclopropane-1,1-dicarboxamide Hydrochloride], for which the 50% inhibitory concentration (IC50) at AXL, against Mer, on Met and against KDR was 10 to 100 nM throughout.
As for `CNC(=O)c1cc2c(Oc3ccc(NC(=O)C4(C(=O)Nc5ccc(F)cc5)CC4)cc3)ccnc2cc1OCC(C)O` (stereo not drawn) [Compound 116, 1-N′-(4-Fluorophenyl)-1-N-[4-[7-(2-hydroxypropoxy)-6-(methylcarbamoyl)quinolin-4-yl]oxyphenyl]cyclopropane-1,1-dicarboxamide], the IC50 at AXL was not above 10 nM; against Mer, 10 to 100 nM; at Met it was 10 to 100 nM; at KDR, not above 10 nM.
For `COc1cc2nccc(Oc3ccc(NC(=O)C4(C(=O)Nc5ccc(F)cc5)CC4)cc3)c2cc1-c1cnco1` [Compound 192, 1-N′-(4-Fluorophenyl)-1-N-[4-[7-methoxy-6-(1,3-oxazol-5-yl)quinolin-4-yl]oxyphenyl]cyclopropane-1,1-dicarboxamide], the half-inhibitory concentration (IC50) at AXL is not above 10 nM; against Mer, not above 10 nM; at Met it was 10 to 100 nM; against KDR it was not above 10 nM.
Take `CNC(=O)c1cc2c(Oc3ccc(NC(=O)C4(C(=O)Nc5ccc(Cl)cc5)CC4)cc3F)ccnc2cc1OC` [Compound 274, 1-N-(4-Chlorophenyl)-1-N′-[3-fluoro-4-[7-methoxy-6-(methylcarbamoyl)quinolin-4-yl]oxyphenyl]cyclopropane-1,1-dicarboxamide]: the IC50 is 10 to 100 nM at AXL, not above 10 nM against Mer, 10 to 100 nM on Met and not above 10 nM against KDR.
Regarding `CNC(=O)c1cc2nccc(Oc3c(F)cc(NC(=O)C4(C(=O)Nc5ccc(F)cc5)CC4)c(F)c3F)c2cc1C` [Compound 292, 1-N-(4-Fluorophenyl)-1-N′-[2,3,5-trifluoro-4-[6-methyl-7-(methylcarbamoyl)quinolin-4-yl]oxyphenyl]cyclopropane-1,1-dicarboxamide], the IC50 at AXL was 10 to 100 nM; at Mer, 10 to 100 nM; at Met, 10 to 100 nM; against KDR, more than 300 nM.
Turning to `O=C(Nc1ccc(F)cc1)C1(C(=O)Nc2ccc(Oc3ccnc4cc(OCCO)c(-c5ncco5)cc34)cc2)CC1` [Compound 50, 1-N′-(4-Fluorophenyl)-1-N-[4-[7-(2-hydroxyethoxy)-6-(1,3-oxazol-2-yl)quinolin-4-yl]oxyphenyl]cyclopropane-1,1-dicarboxamide], the IC50 against AXL, against Mer, at Met and at KDR was not above 10 nM in each case.
For `CCNS(=O)(=O)c1cc2c(Oc3ccc(NC(=O)C4(C(=O)Nc5ccc(F)cc5)CC4)cc3)ccnc2cc1OC` [Compound 208, 1-N-[4-[6-(Ethylsulfamoyl)-7-methoxyquinolin-4-yl]oxyphenyl]-1-N′-(4-fluorophenyl)cyclopropane-1,1-dicarboxamide], the half-inhibitory concentration (IC50) against AXL, against Mer, on Met and against KDR was 10 to 100 nM in each case.
With `COc1cc2nccc(Oc3ccc(NC(=O)C4(C(=O)Nc5ccc(F)cc5)CC4)cc3)c2cc1C(=O)NOCC(O)CO` (single isomer, unassigned) [Compound 30, 1-N-[4-[6-(2,3-dihydroxypropoxycarbamoyl)-7-methoxyquinolin-4-yl]oxyphenyl]-1-N′-(4-fluorophenyl)cyclopropane-1,1-dicarboxamide], the half-maximal inhibitory concentration (IC50) at AXL is 100 to 300 nM; against Mer, more than 300 nM; at Met, 100 to 300 nM; against KDR, 10 to 100 nM.
On to `CNC(=O)c1cc2c(Oc3ccc(NC(=O)C4(C(=O)Nc5ccc(F)cc5)CC4)cc3)ccnc2cc1OCCO` [Compound 110, 1-N′-(4-Fluorophenyl)-1-N-[4-[7-(2-hydroxyethoxy)-6-(methylcarbamoyl)quinolin-4-yl]oxyphenyl]cyclopropane-1,1-dicarboxamide], for which the 50% inhibitory concentration (IC50) was not above 10 nM on AXL, 10 to 100 nM on Mer, not above 10 nM on Met and not above 10 nM against KDR.
Turning to `CNC(=O)c1cc2c(Oc3ccc(NC(=O)C4(C(=O)Nc5ccc(F)cc5C5CC5)CC4)cc3F)ccnc2cc1OC` [Compound 270, 1-N′-(2-Cyclopropyl-4-fluorophenyl)-1-N-[3-fluoro-4-[7-methoxy-6-(methylcarbamoyl)quinolin-4-yl]oxyphenyl]cyclopropane-1,1-dicarboxamide], the IC50 against AXL, against Mer, on Met and against KDR was 10 to 100 nM throughout.
Turning to `COc1cc2nccc(Oc3ccc(NC(=O)C4(C(=O)Nc5ccc(F)cc5)CC4)cc3)c2cc1C(=O)NO` [Compound 20, 1-N′-(4-fluorophenyl)-1-N-[4-[6-(hydroxycarbamoyl)-7-methoxyquinolin-4-yl]oxyphenyl]cyclopropane-1,1-dicarboxamide], the 50% inhibitory concentration (IC50) on AXL, at Mer, on Met and against KDR was 10 to 100 nM throughout.
As for `CNC(=O)c1cc2nccc(Oc3ccc(NC(=O)C4(C(=O)Nc5ccc(F)cc5)CC4)cc3F)c2cc1C` [Compound 289, 1-N′-[3-Fluoro-4-[6-methyl-7-(methylcarbamoyl)quinolin-4-yl]oxyphenyl]-1-N-(4-fluorophenyl)cyclopropane-1,1-dicarboxamide], the IC50 against AXL, against Mer, on Met and against KDR was 10 to 100 nM each time.
